1 compound from patent US12419811B2, “Hydrogel drug delivery composition” (Board of Regents of the University of Nebraska, priority 2019, dated 2025) can be followed below.

Series [1] concerns experimental periodontitis. Kind of series: BIO hydrogels in rat experimental periodontitis, micro-CT of periodontal bone and femur. Type of series: in vivo, Sprague Dawley rats. As to conditions: 100 μM BIO, week 4. An excerpt:
Ten-month-old female Sprague Dawley rats (retired breeders, Envigo) were acclimated for one week prior to experiment. […] Using silk ligatures, the experimental periodontitis was induced as described previously^[32, 38]. Briefly, rats were first anesthetized in an isoflurane chamber with a 1% to 4% isoflurane in 100% O2. After taking the body weight, the rats were positioned with a nose cone supplied with 0.5% to 2% isoflurane and 100% O2 to maintain anesthesia during the entire procedure. To induce experimental periodontitis, a 4-0 silk ligature was gently tightened subgingivally around the maxillary 2nd molars (M2). Following ligature placement, different treatments (10 μL) were locally delivered between the maxillary 1st molar (M1) and 2nd molar (M2) once each week for 3 weeks. After one week, the ligatures were removed. All animals were euthanized at week 4. The entire palate including all three molars was dissected and fixed in 10% formalin prior to micro-CT and histological analyses. […] All palate samples (including all three molars) were evaluated for alveolar bone quality using a high-resolution X-ray microtomography system (Skyscan 1172, Bruker, Kontich, Belgium), references to previous studies^[32, 38]. […] To evaluate bone erosion, the distance from cementoenamel junction (CEJ) to alveolar bone crest (ABC) was determined using Skyscan Data viewer software. […] The ROI was determined from the distopalatal of M1 to the mesiopalatal of M2 (length), 130 slices below the CEJ of M1 and M2 (height), and from the palatal side to the buccal side of M1 and M2 (width). […] For bone quality analysis, a consistent polygonal ROI of trabecular bone at the distal femur was selected and the ROI was determined from 20 slices to 100 slices proximal to the growth plate. The bone histomorphometric parameters, including mean bone volume (BV), bone volume/tissue volume (BV/TV), trabecular thickness (Tb.Th) and bone mineral density (BMD) were determined using CT-Analyzer software.

Series [2] in a line: In vitro release of BIO from PF127 hydrogel (membrane-less). Type of series: physicochemical. As to conditions: 37° C. On the procedure: After gelation, 2 mL of phosphate-buffered saline (PBS; pH 7.4) containing 0.5% Tween 80 pre-equilibrated at 37° C. were gently laid over the surface of the hydrogels and incubated in a water bath at 37° C. with continuous gentle shaking. […] The release study was performed in triplicate.

The next series has as its system β-catenin. Briefly: BIO hydrogels in rat experimental periodontitis, IHC staining of β-catenin. The class given is in vivo, Sprague Dawley rats. As to conditions: between M1 and M2. The source says: (§1) Ten-month-old female Sprague Dawley rats (retired breeders, Envigo) were acclimated for one week prior to experiment. […] Using silk ligatures, the experimental periodontitis was induced as described previously^[32, 38]. Briefly, rats were first anesthetized in an isoflurane chamber with a 1% to 4% isoflurane in 100% O2. After taking the body weight, the rats were positioned with a nose cone supplied with 0.5% to 2% isoflurane and 100% O2 to maintain anesthesia during the entire procedure. To induce experimental periodontitis, a 4-0 silk ligature was gently tightened subgingivally around the maxillary 2nd molars (M2). […] To probe the presence of inflammatory cells between M1 and M2 and osteoclasts in the alveolar crest, a pathologist (SML) blind to experimental group assignment, evaluated the slides semi-quantitatively using an Olympus BX53 microscope. A semi-quantitative scoring system^[32, 40, 41] was used to evaluate inflammatory cells, where 0 is negative, 1 is less than 30% of the affected tissues, 2 is some inflammatory cells (30-60%), and 3 is many inflammatory cells (>60%). Similarly, osteoclasts on the alveolar crest were evaluated using a semi-quantitative scoring system^[32,42] where 0 is negative, 1 is a few osteoclasts lining less than 5% of alveolar bone surface, 2 is some osteoclasts (5-25%), and 3 is many osteoclasts (25-50%). […]

The subject of series [3] is experimental periodontitis. Briefly: BIO hydrogels in rat experimental periodontitis, H&E histology scores. The class given is in vivo, Sprague Dawley rats.
Description: as §1

The mark [4] stands for this setting: 10 μL local once each week for 3 weeks.

On to `O=C1Nc2cc(Br)ccc2/C1=C1/Nc2ccccc2/C1=N\O` [BIO, 6-bromoindirubin-3′-oxime], for which the “linear distance CEJ to ABC (alveolar bone loss)” value in series [1] (10 μL local between M1 and M2 once each week for 3 weeks) is given as “did not show a statistically significant difference comparing to the saline-treated group”. Further, in series [1] (setting [4]), the “Bone volume (BV) of alveolar bone” value is listed as “No statistically significant difference” and the “trabecular thickness (Tb.Th) of alveolar bone” value is recorded as “No statistically significant difference”. The “burst release of BIO” value in series [2] (from 20% w/v PF127 hydrogel, first 3 hr) is on record as about 50%. In series [2] (from 20% w/v PF127 hydrogel, in 24 hr), the “total release of BIO” value is on record as about 99%. The BIO release profile entry in series [2] (from 25% w/v PF127 hydrogel) is “burst release in the first 12 hr followed by a sustained release in the next 48 hr”. Also, the “duration of sustained BIO release” value in series [2] (from 30% w/v PF127 hydrogel) is reported as “over 48 hr”. Also, in the series with β-catenin, the “β-Catenin positive cell score (0-3)” value was “not significantly different (P>0.05) from the saline Con-, PF127, and healthy Con+ group”. For the same compound, the “osteoclast score (semi-quantitative, 0-3)” value in series [3] (alveolar crest, after three weeks of treatment) was “significantly lower than the saline Con-group”. Besides, the “inflammatory cell score (semi-quantitative, 0-3)” value in series [3] (between M1 and M2, after three weeks of treatment) is “statistically significant difference (P<0.01) only when compared to the saline Con-group”.
